Like-named read-outs stand apart in the source and are kept apart here.
What was measured:
[1] = test system: SV-40; settings: 3.5 mM cisplatin solution then 175 mM sodium thiosulfate solution
Description: (§1) Evaluation of virus inactivation was performed by TCID50 using a 96-well microplate. In a 25-cm^2 cell culture flask, a CV-1 cell (simian kidney derived cell), which is a proliferating cell of SV-40, was cultivated in a 10% fetal bovine serum-added MEM medium for 3 days for proliferation. Thereafter, the cells were floated with 0.5 mL of 0.05% trypsin-EDTA, to prepare a cell suspension in 25 mL of the 10% fetal bovine serum-added MEM medium.
After 90 μL of the cell suspension was added to each well of the 96-well microplate, 10 μL of the reaction mixture (the above-mentioned supernatant) was added to each well of the first column of the 96-well microplate and pipetting was performed to stir the resultant. Further, 10 μL of the solution in each well of the first column was added to each well of the second column of the microplate to perform 10-fold gradual dilution operation. This operation was repeated up to the wells of the twelfth column of the microplate. The microplate was incubated in a 5% carbon dioxide gas incubator at 37° C. for 10 days. […] A value obtained by subtracting TCID50 of the inactivated solution from TCID50 of the positive control was defined as a killing effect.

[2] = test system: Yersinia enterocolitica
Description: In the blood bag 1 (400-mL CPDA blood bag) of the blood bag system shown in FIG. 1, RC-MAP (concentrated erythrocyte preparation) was prepared from blood collected from healthy humans. […] To the resultant was added 2 mL of a 168 mM L-methionine solution having dissolved L-methionine in physiological saline, for a reaction at room temperature for 30 minutes.
Similarly, as neutralizing agents, L-methionine solutions having concentrations of 84 mM, 42 mM, 21 mM, 10.5 mM, 5.25 mM, 2.63 mM, and 1.31 mM, respectively, obtained by dissolving L-methionine in physiological saline or sodium thiosulfate solutions having concentrations of 168 mM, 84 mM, 42 mM, 21 mM, 10.5 mM, 5.25 mM, 2.63 mM, and 1.31 mM, respectively, obtained by dissolving sodium thiosulfate in physiological saline were used to effect a reaction. […] Thereafter, 10 μL of 10^8 CFU/mL Yersinia enterocolitica was added to each solution, and the number of bacterial cells after stirring was measured.
Measurement of bacterial cells was conducted on solutions obtained by repeating 3 times the 10-fold gradual dilution operation consisting of adding 1 mL of the inactivated solution to 9 mL of sterilized physiological saline, stirring the mixture by using a touch mixer, and further adding 1 mL of the resultant to 9 mL of physiological saline for dilution. […], 1 mL or 100 μL of the diluted solution in each stage was mixed in a petri dish having a diameter of 9 cm and containing 15 mL soybean casein digest agar medium. This was cultivated at 31° C. for 2 days. The number of colonies emerged was defined as number of survival bacteria, and a logarithmic value (log10) thereof was defined as a neutralization effect.

[3] = test system: Simian Virus 40 (SV-40); assay: Virus inactivation of SV-40 in RC-MAP using the blood bag system (Example 2), TCID50 on CV-1 cells; format: cell-based; settings: for inactivation effect (positive control TCID50 minus inactivated solution TCID50): 7 hours; for TCID50 of the inactivated solution: room temperature (in the dark) 7 hours, positive control 6.0 log10
Description: Blood was collected from healthy humans and RC-MAP (concentrated erythrocyte preparation) was prepared, which was introduced into the blood bag 1 (400-mL CPDA blood bag) in the blood bag system shown in FIG. 2. Thereafter, 10^8 TCID50/mL (50% infection endpoint) of SV-40 per 2 mL of RC-MAP was added to the blood bag 1 from the air-bleeding tube 10 by using a syringe, and the blood bag 1 was gently stirred.
Thereafter, the blood bag was stirred gently, and the resultant was allowed to react at room temperature (in the dark) for 7 hours to effect inactivation. After completion of the inactivation, 4 mL of the inactivated solution was sampled from the blood bag 1 and centrifuged at 3,000 rpm for 1 minute. The supernatant was used for the evaluation of virus inactivation.
as §1
(§2) After 90 μL of the cell suspension was added to each well of the 96-well microplate, 10 μL of the reaction mixture (the above-mentioned supernatant) was added to each well of the first column of the 96-well microplate and pipetting was performed to stir the resultant. Further, 10 μL of the solution in each well of the first column was added to each well of the second column of the microplate to perform 10-fold gradual dilution operation. This operation was repeated up to the wells of the twelfth column of the microplate. The microplate was incubated in a 5% carbon dioxide gas incubator at 37° C. for 10 days. Then, a cytopathic effect (CPE) by SV-40 was observed using an optical microscope, and TCID50 were calculated as logarithmic values (log10).
(§3) At the same time, TCID50 of a positive control, in which a phosphate buffer was added instead of the platinum compound, was calculated as a logarithmic value (log10). A value obtained by subtracting TCID50 of the inactivated solution from TCID50 of the positive control was defined as a killing effect (inactivation effect).
In FIG. 4, the inactivation effect means a value obtained by subtracting TCID50 of the inactivated solution (logarithmic value (log10)) from TCID50 of the above-mentioned positive control (logarithmic value (log10)).

[4] = test system: initial culture cells of Ehrlich cancer; settings: cited from earlier work
[5] = test system: Simian Virus 40 (SV-40); assay: Virus inactivation of SV-40 in RC-MAP (Example 1), TCID50 on CV-1 cells; format: cell-based; settings: for inactivation effect (positive control TCID50 minus inactivated solution TCID50): 7 hours; for TCID50 of the inactivated solution: room temperature (in the dark) 7 hours, positive control 6.5 log10
Description: In a 400-mL CPDA blood bag in the blood bag system shown in FIG. 1, RC-MAP (concentrated erythrocyte preparation) was prepared from blood collected from healthy humans. Thereafter, 2 mL of RC-MAP was sampled in a 15-mL centrifuging tube aseptically, and 2 mL of 10^8 TCID50/mL (50% infection end point) SV-40 was added thereto, followed by gentle stirring. […] After completion of the inactivation, the inactivated solution was centrifuged at 3,000 rpm for 1 minute and the supernatant was used for the evaluation of virus inactivation.
as §1, §2
as §3, with “effect.” for “effect (inactivation effect).”
In FIG. 3, the inactivation effect means a value obtained by subtracting TCID50 of the inactivated solution (logarithmic value (log10)) from TCID50 of the above-mentioned positive control (logarithmic value (log10)).

[6] = test system: Mouse Hepatitis Virus (MHV); assay: Virus inactivation of MHV in RC-MAP (Example 4), TCID50 on DBT cells; format: cell-based; settings: 1.67 mM solution, 7 hours
Description: Thereafter, 2 mL of RC-MAP was sampled in a 15-mL centrifuging tube aseptically, and 2 mL of 10^7 TCID50/mL MHV was added thereto, followed by gentle stirring. […] After completion of the inactivation, the inactivated solution was centrifuged at 3,000 rpm for 1 minute and the supernatant was used for the evaluation of virus inactivation.
Evaluation of virus inactivation was performed by TCID50 using a 96-well microplate. In a 25-cm^2 cell culture flask, a DBT cell, which is a proliferating cell of MHV, was cultivated in a 5% fetal bovine serum-added MEM medium for 3 days for proliferation. Thereafter, the cells were floated with 0.5 mL of 0.05% trypsin-EDTA, to prepare a cell suspension in 25 mL of the 10% fetal bovine serum-added MEM medium.
After 90 μL of this cell suspension was added to each well of the 96-well microplate, 10 μL of the solution was added to each well of the first column of the 96-well microplate and pipetting was performed to stir the resultant. […] Then, a cytopathic effect (CPE) by MHV was observed using an optical microscope, and TCID50 was calculated as a logarithmic value (log10). At the same time, TCID50 of a positive control, in which a phosphate buffer was added instead of the platinum compound, was calculated as a logarithmic value (log10). […]

[7] = test system: Yersinia enterocolitica; assay: Bacteria inactivation of Yersinia enterocolitica in RC-MAP (Example 5), colony count; format: cell-based; settings: for Number of survival bacteria: RC-MAP, 7 hours
Description: After gentle stirring, the resultant was allowed to react at room temperature (in the dark) for 7 hours to effect inactivation.
This was cultivated at 31° C. for 2 days.
Note that solution to which no cisplatin was added was defined as a positive control. A bacteria inactivation effect was defined by a value obtained by subtracting the number of survival bacteria (logarithmic value (log10)) in cisplatin-added inactivated solution from the number of survival bacteria (logarithmic value (log10)) in the positive control.

[8] = test system: Human Cytomegalovirus (HCMV); assay: Virus inactivation of HCMV in RC-MAP (Example 3), TCID50 on HEL cells; format: cell-based; settings: 1.67 mM solution, 7 hours
Description: In the blood bag 1 (a 400-mL CPDA blood bag) in the blood bag system shown in FIG. 1, RC-MAP (concentrated erythrocyte preparation) was prepared from blood collected from healthy humans. Thereafter, 2 mL of RC-MAP was sampled in a 15-mL centrifuging tube aseptically, and 2 mL of 10^7 TCID50/mL HCMV was added thereto, followed by gentle stirring. […] After completion of the inactivation, the inactivated solution was centrifuged at 3,000 rpm for 1 minute and the supernatant was used for the evaluation of virus inactivation.
Evaluation of virus inactivation was performed by TCID50 using a 96-well microplate. In a 25-cm^2 cell culture flask, a HEL cell (primary human embryonic lung fibroblasts cell), which is a proliferating cell of HCMV, was cultivated in a 10% fetal bovine serum-added MEM medium for 3 days for proliferation. […]
After 90 μL of this cell suspension was added to each well of the 96-well microplate, 10 μL of the solution (the above-mentioned supernatant) was added to each well of the first column of the 96-well microplate and pipetting was performed to stir the resultant. […] Then, a cytopathic effect (CPE) by HCMV was observed using an optical microscope, and TCID50 was calculated as a logarithmic value (log10) . At the same time, TCID50 of a positive control, in which a phosphate buffer was added instead of the platinum compound, was calculated as a logarithmic value (log10).

SMILES: O=S([O-])([O-])=S.[Na+].[Na+] [sodium thiosulfate]
- killing effect (inactivation effect of SV-40) after neutralization [1]: no killing effect
- TCID50 after inactivator and neutralizing agent ([1]; 30 minutes, positive control 6.00 log10): 6.00 log10
- Number of survival bacteria (neutralization effect) ([2]; sodium thiosulfate 0.44 mM after 4.00 mM cisplatin solution): 0.44 log10
- Number of survival bacteria (neutralization effect) ([2]; sodium thiosulfate 0.88 mM after 4.00 mM cisplatin solution): 0.86 log10
- Number of survival bacteria (neutralization effect) ([2]; sodium thiosulfate 1.75 mM after 4.00 mM cisplatin solution): 1.28 log10
- Number of survival bacteria (neutralization effect) ([2]; sodium thiosulfate 3.5 mM after 4.00 mM cisplatin solution): 1.51 log10
- Number of survival bacteria (neutralization effect) ([2]; sodium thiosulfate 7 mM after 4.00 mM cisplatin solution): 1.98 log10
- Number of survival bacteria (neutralization effect) ([2]; sodium thiosulfate 14 mM after 4.00 mM cisplatin solution): 2.35 log10
- Number of survival bacteria (neutralization effect) ([2]; sodium thiosulfate 28 mM after 4.00 mM cisplatin solution): 4.22 log10
- Number of survival bacteria (neutralization effect) ([2]; sodium thiosulfate 56 mM after 4.00 mM cisplatin solution, 30 minutes, same as without cisplatin): 5.1 log10

SMILES: N.N.[Cl][Pt][Cl] [cisplatin]
- inactivation effect (positive control TCID50 minus inactivated solution TCID50) ([3]; 1.67 mM solution): 5.0 log10
- TCID50 of the inactivated solution ([3]; 1.67 mM solution): 1.0 log10
- effective concentration against cancer cells (antiviral activity (IC50)) [4]: 0.25 µg/mL
- inactivation effect (positive control TCID50 minus inactivated solution TCID50) ([5]; 1.67 mM solution): 5.25 log10
- TCID50 of the inactivated solution ([5]; 1.67 mM solution): 1.25 log10
- MHV killed (MHV inactivation effect) [6]: 4.00 log10
- Bacteria killing effect ([7]; cisplatin 0.0209 mM): 0.18 log10
- Number of survival bacteria ([7]; cisplatin 0.0209 mM): 4.82 log10
- Bacteria killing effect ([7]; cisplatin 0.042 mM): 0.48 log10
- Number of survival bacteria ([7]; cisplatin 0.042 mM): 4.52 log10
- Bacteria killing effect ([7]; cisplatin 0.083 mM): 1.21 log10
- Number of survival bacteria ([7]; cisplatin 0.083 mM): 3.79 log10
- Bacteria killing effect ([7]; cisplatin 0.17 mM): 2.20 log10
- Number of survival bacteria ([7]; cisplatin 0.17 mM): 2.80 log10
- Bacteria killing effect ([7]; cisplatin 0.33 mM): 2.73 log10
- Number of survival bacteria ([7]; cisplatin 0.33 mM): 2.27 log10
- Bacteria killing effect ([7]; cisplatin 0.67 mM): 3.52 log10
- Number of survival bacteria ([7]; cisplatin 0.67 mM): 1.48 log10
- Bacteria killing effect ([7]; cisplatin 1.33 mM): 4.94 log10
- Number of survival bacteria ([7]; cisplatin 1.33 mM, positive control 5.00 log10): 0.06 log10
- HCMV killed (anti-HCMV inactivation effect) [8]: 4.00 log10

SMILES: [NH2][Pt]1([NH2])[O]CC(=O)[O]1 [nedaplatin]
- inactivation effect (positive control TCID50 minus inactivated solution TCID50) ([3]; 3.5 mM solution): 3.5 log10
- TCID50 of the inactivated solution ([3]; 3.5 mM solution): 2.5 log10
- inactivation effect (positive control TCID50 minus inactivated solution TCID50) ([5]; 3.5 mM solution): 4.25 log10
- TCID50 of the inactivated solution ([5]; 3.5 mM solution): 2.25 log10

SMILES: N.N.O=C([O-])C1(C(=O)[O-])CCC1.[Pt+2] [carboplatin]
- inactivation effect (positive control TCID50 minus inactivated solution TCID50) ([3]; 3.5 mM solution): 1.5 log10
- TCID50 of the inactivated solution ([3]; 3.5 mM solution): 4.5 log10
- inactivation effect (positive control TCID50 minus inactivated solution TCID50) ([5]; 3.5 mM solution): 1.00 log10
- TCID50 of the inactivated solution ([5]; 3.5 mM solution): 5.50 log10

SMILES: CSCC[C@H](N)C(=O)O [methionine, L-methionine]
- Number of survival bacteria (neutralization effect) ([2]; methionine 0.44 mM after 4.00 mM cisplatin solution): 0.34 log10
- Number of survival bacteria (neutralization effect) ([2]; methionine 0.88 mM after 4.00 mM cisplatin solution): 0.73 log10
- Number of survival bacteria (neutralization effect) ([2]; methionine 1.75 mM after 4.00 mM cisplatin solution): 0.89 log10
- Number of survival bacteria (neutralization effect) ([2]; methionine 3.5 mM after 4.00 mM cisplatin solution): 1.22 log10
- Number of survival bacteria (neutralization effect) ([2]; methionine 7 mM after 4.00 mM cisplatin solution): 1.43 log10
- Number of survival bacteria (neutralization effect) ([2]; methionine 14 mM after 4.00 mM cisplatin solution): 1.87 log10
- Number of survival bacteria (neutralization effect) ([2]; methionine 28 mM after 4.00 mM cisplatin solution): 3.36 log10
- Number of survival bacteria (neutralization effect) ([2]; methionine 56 mM after 4.00 mM cisplatin solution, 30 minutes, same as without cisplatin): 5.1 log10

Reference: patent publication US20050070872A1, “Blood bag system and method of inactivating pathogenic microorganisms” (priority 2001, published 2005)
